# Assay results reported in patent US20060263344A1, “Novel probiotic compositions and methods of using the same” (priority 2003, published 2006).
# Tests used:
# [1] = Stability of CoQ10 in a 50° C. oven open to the air (HPLC); format: physicochemical; details: for Loss of CoQ10 after 36 days at 50° C. (equivalent to 3 months at room temperature) / Loss of CoQ10 after 72 days at 50° C. (equivalent to 6 months at room temperature): open to the air
# Method: 100 mg of USP CoQ10 (Sigma) and CoQ10 contained in a glycoprotein matrix from Example 1 was placed in a 10 ml beaker in a 50° C. oven open to the air. The amount of CoQ10 remaining was analyzed by HPLC using a C18 column (Perkin Elmer Pecosil 5, 15 cm) and a solvent of 75% methanol and 25% isopropanol.
# [2] = system: lower density lipoproteins (LDL+VLDL); assay: Inhibition of cupric ion-induced oxidation of lower density lipoproteins (antioxidant activity); format: biochemical, humans; details: inhibition of lipid peroxide formation in LDL+VLDL, 25 μM cupric ion, 37° C., 6 hours; matrix sample based on CoQ10 conc.
# Method: A weighed portion (50-500 mg) of solid sample of CoQ10 contained in a glycoprotein matrix was mixed with 5 ml of 50% methanol/water and heated at 90° C. in a plastic screw-capped tube with intermittent shaking for 2 hours to determine the unconjugated (“free”) phenols present. Another weighed portion of the same sample was heated with 5 ml of 1.2 M HCl in 50% aqueous methanol for 2 hours at 90° C. to measure the unconjugated plus conjugated (“total”) phenols. The extracts, each done in duplicate, were then filtered with a 0.45 μm filter and stored at −20° C. until assay. Values for free polyphenols and total phenols for commercial CoQ10 are known.
# The phenol content in the extracts was measured by the Folin-Cocialteu reagent (Sigma Chemical Co., St. Louis, Mo.) using catechin (Sigma) as a standard. A blank, catechin standards and samples were added to the Folin reagent in a cuvette and after 20 minutes the color was measured at 720 nm vs. a blank. […]
# The amount of lipid peroxides was measured using thiobarbituric acid and fluorometry. The % of inhibition of lipid peroxide formation was calculated vs. a control with no added antioxidants. The IC50 value in μM units was then calculated.
# The amount of CoQ10 in the composition of the invention was determined by HPLC using UV detector, C18 column (Perkin Elmer Pecosil 5, 15 cm) and a solvent of 75% methanol and 25% isopropanol. […]
compound,measurement,setting,value
"COC1=C(OC)C(=O)C(C/C=C(\C)CC/C=C(\C)CC/C=C(\C)CC/C=C(\C)CC/C=C(\C)CC/C=C(\C)CC/C=C(\C)CC/C=C(\C)CC/C=C(\C)CCC=C(C)C)=C(C)C1=O [CoQ10 (USP), Coenzyme Q10]",Loss of CoQ10 at 0 days,[1]; 0 days,0%
same,Loss of CoQ10 after 36 days at 50° C. (equivalent to 3 months at room temperature),[1]; listed as USP CoQ10,6.8%
same,Loss of CoQ10 after 36 days at 50° C. (equivalent to 3 months at room temperature),[1]; listed as commercial CoQ10,6.8%
same,Loss of CoQ10 after 72 days at 50° C. (equivalent to 6 months at room temperature),[1]; listed as USP CoQ10,16.8%
same,Loss of CoQ10 after 72 days at 50° C. (equivalent to 6 months at room temperature),[1]; listed as commercial sample,16.8%
same,IC50,[2],1330 nM
